From patent publication US20260347338A1, “PYRIMIDINE/PYRIDINE DERIVATIVES OR SALTS THEREOF AND PHARMACEUTICAL COMPOSITIONS COMPRISING THE SAME” (YUHAN CORPORATION, priority 2023, published 2026)
Counter-ions that a name gives are not always drawn.

Target: T1, human recombinant HPK1 (Homo sapiens, UniProt Q92918)
T1 construct: purchased BPS Bioscience
Assay: Inhibitory activity against human recombinant HPK1 (TR-FRET)
Format: biochemical
Details: ULight-p70S6K peptide, ATP at Km, room temperature, 1 hour, 0.32 to 1000 nM compound
In short: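 Recombinant human HPK1 with ULight-p70S6K peptide and ATP at Km, 1 h at room temperature in HEPES pH 7.4 buffer with Mg2+, Mn2+, EGTA, DTT; compounds 0.32–1000 nM final. EDTA stop, Eu-anti-phosphopeptide TR-FRET read (665 nm); IC50 from % inhibition versus DMSO, binned A–D at 10, 50, 100 nM.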

T1 sequence (Q92918 whole entry): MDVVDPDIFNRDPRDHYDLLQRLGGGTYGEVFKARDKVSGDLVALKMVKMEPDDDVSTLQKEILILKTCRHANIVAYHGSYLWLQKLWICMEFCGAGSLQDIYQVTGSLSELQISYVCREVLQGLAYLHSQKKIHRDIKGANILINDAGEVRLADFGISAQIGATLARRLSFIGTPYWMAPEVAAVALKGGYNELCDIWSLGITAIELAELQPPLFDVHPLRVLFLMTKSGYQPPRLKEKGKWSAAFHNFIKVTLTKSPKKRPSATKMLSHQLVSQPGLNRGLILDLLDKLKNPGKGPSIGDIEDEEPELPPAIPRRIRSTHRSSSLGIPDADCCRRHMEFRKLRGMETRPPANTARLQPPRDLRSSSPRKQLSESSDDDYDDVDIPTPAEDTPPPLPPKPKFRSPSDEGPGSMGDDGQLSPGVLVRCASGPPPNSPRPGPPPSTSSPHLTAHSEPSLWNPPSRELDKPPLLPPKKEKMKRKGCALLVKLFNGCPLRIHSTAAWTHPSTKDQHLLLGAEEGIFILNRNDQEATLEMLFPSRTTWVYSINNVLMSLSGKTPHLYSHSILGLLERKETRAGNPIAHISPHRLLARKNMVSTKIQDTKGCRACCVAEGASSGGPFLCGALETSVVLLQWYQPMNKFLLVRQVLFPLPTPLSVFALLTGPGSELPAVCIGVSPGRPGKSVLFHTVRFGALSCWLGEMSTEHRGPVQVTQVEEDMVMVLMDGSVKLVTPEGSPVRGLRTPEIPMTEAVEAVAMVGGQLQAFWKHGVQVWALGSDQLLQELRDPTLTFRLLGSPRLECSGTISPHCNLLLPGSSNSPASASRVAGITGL

SMILES | IC50
COc1cccc(F)c1-c1nccc(Nc2cc(N3CCC[C@@H](C(F)F)C3)c(-c3cnn(C(F)F)c3)cn2)n1 [Example 273, (R)-N-(5-(1-(difluoromethyl)-1H-pyrazol-4-yl)-4-(3-(difluoromethyl)piperidin-1-yl)pyridin-2-yl)-2-(2-fluoro-6-methoxyphenyl)pyrimidin-4-amine] | ≤ 10 nM
COc1cccc(F)c1-c1nccc(Nc2cc(N3CCC[C@H](N)C3)c(-c3cnc4c(c3)OCC(=O)N4C)cn2)n1 [Example 274, (S)-7-(4-(3-aminopiperidin-1-yl)-6-((2-(2-fluoro-6-methoxyphenyl)pyrimidin-4-yl)amino)pyridin-3-yl)-4-methyl-2H-pyrido[3,2-b][1,4]oxazin-3(4H)-one hydrochloride] | ≤ 10 nM
COc1cccc(F)c1-c1nccc(Nc2cc(N3CCC[C@H](N)C3)c(-c3cnc4c(c3)OCC(=O)N4)cn2)n1 [Example 275, (S)-7-(4-(3-aminopiperidin-1-yl)-6-((2-(2-fluoro-6-methoxyphenyl)pyrimidin-4-yl)amino)pyridin-3-yl)-2H-pyrido[3,2-b][1,4]oxazin-3(4H)-one hydrochloride] | ≤ 10 nM
COc1cccc(F)c1-c1nccc(Nc2cc(N3CCC[C@H](N)C3)c(-c3cnc4c(c3)CCC(=O)N4)cn2)n1 [Example 276, (S)-6-(4-(3-aminopiperidin-1-yl)-6-((2-(2-fluoro-6-methoxyphenyl)pyrimidin-4-yl)amino)pyridin-3-yl)-3,4-dihydro-1,8-naphthyridin-2(1H)-one hydrochloride] | ≤ 10 nM
COc1cccc(F)c1-c1nccc(Nc2cc(N3CCC[C@H](N)C3)c(-c3cnn(C4COC4)c3)cn2)n1 [Example 277, (S)-N-(4-(3-aminopiperidin-1-yl)-5-(1-(oxetan-3-yl)-1H-pyrazol-4-yl)pyridin-2-yl)-2-(2-fluoro-6-methoxyphenyl)pyrimidin-4-amine hydrochloride] | ≤ 10 nM
COC(=O)C(C)(C)n1cc(-c2cnc(Nc3ccnc(-c4c(F)cccc4OC)n3)cc2N2CCC[C@H](N)C2)cn1 [Example 278, methyl (S)-2-(4-(4-(3-aminopiperidin-1-yl)-6-((2-(2-fluoro-6-methoxyphenyl)pyrimidin-4-yl)amino)pyridin-3-yl)-1H-pyrazol-1-yl)-2-methylpropanoate hydrochloride] | ≤ 10 nM
COc1cccc(F)c1-c1nccc(Nc2cc(N3CCC[C@H](N)C3)c(-c3ccc(NC(C)=O)cc3)cn2)n1 [Example 279, (S)-N-(4-(4-(3-aminopiperidin-1-yl)-6-((2-(2-fluoro-6-methoxyphenyl)pyrimidin-4-yl)amino)pyridin-3-yl)phenyl)acetamide hydrochloride] | ≤ 10 nM
COc1cccc(F)c1-c1nccc(Nc2cc(N3CCC[C@H](N)C3)c(-c3cccc(C(=O)N(C)C)c3)cn2)n1 [Example 280, (S)-3-(4-(3-aminopiperidin-1-yl)-6-((2-(2-fluoro-6-methoxyphenyl)pyrimidin-4-yl)amino)pyridin-3-yl)-N,N-dimethylbenzamide hydrochloride] | ≤ 10 nM
COc1cccc(F)c1-c1nccc(Nc2cc(N3CCC[C@H](N)C3)c(-c3ccc(OC(F)(F)F)c(C)c3)cn2)n1 [Example 281, (S)-N-(4-(3-aminopiperidin-1-yl)-5-(3-methyl-4-(trifluoromethoxy)phenyl)pyridin-2-yl)-2-(2-fluoro-6-methoxyphenyl)pyrimidin-4-amine hydrochloride] | ≤ 10 nM
COc1cccc(F)c1-c1nccc(Nc2cc(N3CCC[C@H](N)C3)c(-c3ccc(F)c(C)c3)cn2)n1 [Example 282, (S)-N-(4-(3-aminopiperidin-1-yl)-5-(4-fluoro-3-methylphenyl)pyridin-2-yl)-2-(2-fluoro-6-methoxyphenyl)pyrimidin-4-amine hydrochloride] | ≤ 10 nM
COc1cccc(F)c1-c1nccc(Nc2cc(N3CCC[C@H](N)C3)c(-c3cnn(C4CCNCC4)c3)cn2)n1 [Example 283, (S)-N-(4-(3-aminopiperidin-1-yl)-5-(1-(piperidin-4-yl)-1H-pyrazol-4-yl)pyridin-2-yl)-2-(2-fluoro-6-methoxyphenyl)pyrimidin-4-amine hydrochloride] | ≤ 10 nM
COc1cccc(F)c1-c1nccc(Nc2cc(N3CCC[C@H](N)C3)c(-c3cc(C)c(OC(C)C)c(C)c3)cn2)n1 [Example 284, (S)-N-(4-(3-aminopiperidin-1-yl)-5-(4-isopropoxy-3,5-dimethylphenyl)pyridin-2-yl)-2-(2-fluoro-6-methoxyphenyl)pyrimidin-4-amine hydrochloride] | ≤ 10 nM
COc1cccc(F)c1-c1nccc(Nc2cc(N3CCC[C@H](N)C3)c(-c3cc(C)c(OC)c(C)c3)cn2)n1 [Example 285, (S)-N-(4-(3-aminopiperidin-1-yl)-5-(4-methoxy-3,5-dimethylphenyl)pyridin-2-yl)-2-(2-fluoro-6-methoxyphenyl)pyrimidin-4-amine hydrochloride] | ≤ 10 nM
COc1cccc(F)c1-c1nccc(Nc2cc(N3CCC[C@H](N)C3)c(-c3ccc(N4CCOCC4)cc3)cn2)n1 [Example 286, (S)-N-(4-(3-aminopiperidin-1-yl)-5-(4-morpholinophenyl)pyridin-2-yl)-2-(2-fluoro-6-methoxyphenyl)pyrimidin-4-amine hydrochloride] | ≤ 10 nM
COc1cccc(F)c1-c1nccc(Nc2cc(N3CCC[C@H](N)C3)c(-c3ccc(N4CCOCC4)c(C)c3)cn2)n1 [Example 287, (S)-N-(4-(3-aminopiperidin-1-yl)-5-(3-methyl-4-morpholinophenyl)pyridin-2-yl)-2-(2-fluoro-6-methoxyphenyl)pyrimidin-4-amine hydrochloride] | ≤ 10 nM
COc1cccc(F)c1-c1nccc(Nc2cc(N3CCC[C@H](N)C3)c(-c3ccc(C(=O)N4CCN(CCO)CC4)cc3)cn2)n1 [Example 288, (S)-(4-(4-(3-aminopiperidin-1-yl)-6-((2-(2-fluoro-6-methoxyphenyl)pyrimidin-4-yl)amino)pyridin-3-yl)phenyl)(4-(2-hydroxyethyl)piperazin-1-yl)methanone hydrochloride] | ≤ 10 nM
COc1cccc(F)c1-c1nccc(Nc2cc(N3CCC[C@H](N)C3)c(-c3ccc(C(=O)N[C@H]4CC[C@H](O)CC4)cc3)cn2)n1 [Example 289, 4-(4-((S)-3-aminopiperidin-1-yl)-6-((2-(2-fluoro-6-methoxyphenyl)pyrimidin-4-yl)amino)pyridin-3-yl)-N-((1r,4S)-4-hydroxycyclohexyl)benzamide hydrochloride] | ≤ 10 nM
COc1cccc(F)c1-c1nccc(Nc2cc(N3CCC[C@H](N)C3)c(-c3ccc(C(=O)N(C)C)c(F)c3)cn2)n1 [Example 290, (S)-4-(4-(3-aminopiperidin-1-yl)-6-((2-(2-fluoro-6-methoxyphenyl)pyrimidin-4-yl)amino)pyridin-3-yl)-2-fluoro-N,N-dimethylbenzamide hydrochloride] | ≤ 10 nM
COc1cccc(F)c1-c1nccc(Nc2cc(N3CCC[C@H](N)C3)c(-c3cccc(C(C)=O)c3)cn2)n1 [Example 291, (S)-1-(3-(4-(3-aminopiperidin-1-yl)-6-((2-(2-fluoro-6-methoxyphenyl)pyrimidin-4-yl)amino)pyridin-3-yl)phenyl)ethan-1-one hydrochloride] | ≤ 10 nM
COc1cccc(F)c1-c1nccc(Nc2cc(N3CCC[C@H](N)C3)c(-c3ccc(F)c(Cl)c3)cn2)n1 [Example 292, (S)-N-(4-(3-aminopiperidin-1-yl)-5-(3-chloro-4-fluorophenyl)pyridin-2-yl)-2-(2-fluoro-6-methoxyphenyl)pyrimidin-4-amine hydrochloride] | ≤ 10 nM
COc1cccc(F)c1-c1nccc(Nc2cc(N3CCC[C@H](N)C3)c(-c3ccc(F)c(C(F)(F)F)c3)cn2)n1 [Example 293, (S)-N-(4-(3-aminopiperidin-1-yl)-5-(4-fluoro-3-(trifluoromethyl)phenyl)pyridin-2-yl)-2-(2-fluoro-6-methoxyphenyl)pyrimidin-4-amine hydrochloride] | ≤ 10 nM
COc1cccc(F)c1-c1nccc(Nc2cc(N3CCC[C@H](N)C3)c(-c3ccc(F)c(F)c3)cn2)n1 [Example 294, (S)-N-(4-(3-aminopiperidin-1-yl)-5-(3,4-difluorophenyl)pyridin-2-yl)-2-(2-fluoro-6-methoxyphenyl)pyrimidin-4-amine hydrochloride] | ≤ 10 nM
COc1cccc(F)c1-c1nccc(Nc2cc(N3CC[C@@H](N)[C@H](O)C3)c(-c3cnn(C(F)F)c3)cn2)n1 [Example 295, (3R,4R)-4-amino-1-(5-(1-(difluoromethyl)-1H-pyrazol-4-yl)-2-((2-(2-fluoro-6-methoxyphenyl)pyrimidin-4-yl)amino)pyridin-4-yl)piperidin-3-ol] | ≤ 10 nM
COc1cccc(F)c1-c1nccc(Nc2cc(N3CCC[C@H](N)C3)c(-c3ccc(F)c(N(C)C)c3)cn2)n1 [Example 296, (S)-N-(4-(3-aminopiperidin-1-yl)-5-(3-(dimethylamino)-4-fluorophenyl)pyridin-2-yl)-2-(2-fluoro-6-methoxyphenyl)pyrimidin-4-amine hydrochloride] | ≤ 10 nM
COc1cccc(F)c1-c1nccc(Nc2cc(N3CC[C@H](N)[C@H](C)C3)c(-c3cnn(C(F)F)c3)cn2)n1 [Example 297, N-(4-((3R,4S)-4-amino-3-methylpiperidin-1-yl)-5-(1-(difluoromethyl)-1H-pyrazol-4-yl)pyridin-2-yl)-2-(2-fluoro-6-methoxyphenyl)pyrimidin-4-amine hydrochloride] | ≤ 10 nM
COc1cccc(F)c1-c1nccc(Nc2cc(N3CCC[C@H](N)C3)c(-c3cnn([C@H]4CCOC4)c3)cn2)n1 [Example 298, N-(4-((S)-3-aminopiperidin-1-yl)-5-(1-((S)-tetrahydrofuran-3-yl)-1H-pyrazol-4-yl)pyridin-2-yl)-2-(2-fluoro-6-methoxyphenyl)pyrimidin-4-amine hydrochloride] | ≤ 10 nM
